According to patent US4657918A, “3-[6-[3-pyrrolidino-1-(4-tolyl)prop-1e-enyl]-2-pyridyl]propionic acid and derivatives having anti-histaminic activity” (priority 1982, dated 1987):

Experiments:
H1 histamine receptor = biological target: T1, H1 histamine receptor (Cavia porcellus, UniProt P31389); assay: In vitro antihistaminic activity, isolated guinea-pig ileum longitudinal muscle, histamine concentration-response shift (Schild plot); format: cell-based; conditions: negative log of the molar concentration of antagonist which shifts the histamine concentration-response curve 2X to the right, 1 h incubation, read-out: pA2 (converted)
T1 construct: The longitudinal muscle was isolated from the intact ileum of guinea-pigs; from tissue; host or cells: guinea-pig ileum, longitudinal muscle (Hartly, male 250-400 g)
T1 sequence (P31389 whole entry): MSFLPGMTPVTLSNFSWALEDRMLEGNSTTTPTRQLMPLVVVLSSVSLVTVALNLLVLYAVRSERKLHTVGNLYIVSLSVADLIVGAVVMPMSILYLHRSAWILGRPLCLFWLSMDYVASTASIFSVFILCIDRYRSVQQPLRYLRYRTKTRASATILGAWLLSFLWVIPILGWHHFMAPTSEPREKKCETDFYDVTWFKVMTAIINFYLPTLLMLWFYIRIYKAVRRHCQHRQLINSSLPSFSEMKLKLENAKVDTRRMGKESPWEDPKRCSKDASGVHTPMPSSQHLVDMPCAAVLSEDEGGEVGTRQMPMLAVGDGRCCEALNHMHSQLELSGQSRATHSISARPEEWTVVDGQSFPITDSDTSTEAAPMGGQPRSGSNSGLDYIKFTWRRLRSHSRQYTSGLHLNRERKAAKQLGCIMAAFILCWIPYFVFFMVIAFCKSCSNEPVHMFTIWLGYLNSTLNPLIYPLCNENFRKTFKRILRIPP
Method: In vitro antihistiminic activity: The longitudinal muscle was isolated from the intact ileum of guinea-pigs (Hartly, male 250-400 g) and placed in an organ bath under 300 mg tension. After one hour of equilibration, cumulative concentration-response curves (Van Rossum, J. M., Arch. Int. Pharmacodyn. Ther. 143, 299-330, 1963) to histamine were obtained. Following washing, the tissues were incubated for one hour with the test compound and then a second histamine concentration-response curve was run. Shifts to the right of the agonist concentration-response curve produced by the antagonists were used to construct Schild plots (Arunlakshana, O. and Schild, H. O., Br. J. Pharmacol: 14, 48-58, 1959). Regression of Log (dr-1) on Log [B], where dr is an equiactive response in the presence and absence of antagonist and [B] is the molar concentration of antagonist, allowed an estimate of pA2, i.e. the negative log of the concentration of antagonist which shifts the control histamine concentration-response curve 2X to the right.

[1] = background statement; cited from earlier work
[2] = antihistamines now in use; some patients; cited from earlier work

| Structure (SMILES) | Kb (H1 histamine receptor) | further results |
| --- | --- | --- |
| O=C(O)/C=C/c1cccc(/C(=C/CN2CCCC2)c2ccccc2)n1 [E, (E)-3-[6-(1-phenyl-3-pyrrolidinoprop-1E-enyl)-2-pyridyl]acrylic acid] | 39.8 nM | – |
| Cc1ccc(/C(=C\CN2CCCC2)c2cccc(C(=O)O)n2)cc1 [F, 6-[3-pyrrolidino-1-(4-tolyl)prop-1E-enyl]pyridine-2-carboxylic acid] | 1.26 nM | – |
| COc1ccc(/C(=C\CN2CCCC2)c2cccc(/C=C/C(=O)O)n2)cc1 [C, (E)-3-{6-[3-pyrrolidino-1-(4-methoxyphenyl)prop-1E-enyl]-2-pyridyl}acrylicacid] | 1.26 nM | – |
| Cc1ccc(/C(=C\CN2CCCC2)c2cccc(CCC(=O)O)n2)cc1 [Compound A, 3-{6-[3-Pyrrolidino-1-(4-tolyl)prop-1E-enyl]-2-pyridyl}propionic acid] | 0.631 nM | – |
| Cc1ccc(/C(=C\CN2CCCC2)c2ccccn2)cc1 [Triprolidine, (E)-1-(4-methylphenyl)-1-(2-pyridyl)-3-pyrrolidinoprop-1-ene] | – | antihistamine potency [1]: one of the most potent antihistamines available |
| O=C(O)/C=C/c1cccc(/C(=C/CN2CCCC2)c2ccc(Cl)cc2)n1 [D, (E)-3-{6-[1-(4-chlorophenyl)-3-pyrrolidinoprop-1E-enyl]-2-pyridyl}acrylicacid] | 1 nM | – |
| Cc1ccc(/C(=C\CN(C)C)c2cccc(/C=C/C(=O)O)n2)cc1 [Compound B, (E)-3-{6-[3-Dimethylamino-1-(4-tolyl)prop-1E-enyl]-2-pyridyl}acrylic acid] | 6.31 nM | – |
| CC(CN1c2ccccc2Sc2ccccc21)N(C)C (centres unmarked) [promethazine] | – | sedation or drowsiness [2]: may cause sedation or drowsiness in some patients |
